From ChEMBL document CHEMBL4834473, “Novel hydroxybenzylamine-deoxyvasicinone hybrids as anticholinesterase therapeutics for Alzheimer's disease” (Bioorg Med Chem, 2021)
Activity calls are given as the source filed them. The calls are words filed in the database; no cut-off is given here.

Key:
[1] = target: Amyloid-beta precursor protein (Homo sapiens, UniProt P05067); assay: Inhibition of human amyloid beta (1 to 42) self-induced aggregation measured after 48 hrs by ThT flourescence assay
[2] = target: Acetylcholinesterase (Homo sapiens) (UniProt P22303); assay: Inhibition of AChE (unknown origin)-induced amyloid beta (1 to 42) aggregation at 1 to 5 uM measured after 24 hrs by ThT flourescence assay; conditions: dose 1-5 µM
[3] = target: Acetylcholinesterase (Electrophorus electricus, UniProt O42275); assay: Inhibition of Electric eel AChE using acetylthiocholine iodide as substrate preincubated for 10 mins followed by addition of substrate and measured after 15 mins by Ellman's method
[4] = target: Cholinesterase (Equus caballus, UniProt P81908); assay: Inhibition of equine serum BChE using butyrylthiocholine iodide as substrate preincubated for 10 mins followed by addition of substrate and measured after 15 mins by Ellman's method; type: cell-free
[5] = Selectivity index, ratio of IC50 for equine serum BChE to IC50 for electric eel AChE
[6] = target: Acetylcholinesterase (Electrophorus electricus) (UniProt O42275); assay: Non-competitive/mixed inhibition of electric eel AChE using varying concentrations of acetylthiocholine iodide as substrate at 0.16 to 0.64 uM measured every 2 mins for 10 mins by Lineweaver-Burk plot analysis; conditions: dose 0.16-0.64 µM
Sequence of Acetylcholinesterase (Electrophorus electricus) (O42275 24-633 limits assumed): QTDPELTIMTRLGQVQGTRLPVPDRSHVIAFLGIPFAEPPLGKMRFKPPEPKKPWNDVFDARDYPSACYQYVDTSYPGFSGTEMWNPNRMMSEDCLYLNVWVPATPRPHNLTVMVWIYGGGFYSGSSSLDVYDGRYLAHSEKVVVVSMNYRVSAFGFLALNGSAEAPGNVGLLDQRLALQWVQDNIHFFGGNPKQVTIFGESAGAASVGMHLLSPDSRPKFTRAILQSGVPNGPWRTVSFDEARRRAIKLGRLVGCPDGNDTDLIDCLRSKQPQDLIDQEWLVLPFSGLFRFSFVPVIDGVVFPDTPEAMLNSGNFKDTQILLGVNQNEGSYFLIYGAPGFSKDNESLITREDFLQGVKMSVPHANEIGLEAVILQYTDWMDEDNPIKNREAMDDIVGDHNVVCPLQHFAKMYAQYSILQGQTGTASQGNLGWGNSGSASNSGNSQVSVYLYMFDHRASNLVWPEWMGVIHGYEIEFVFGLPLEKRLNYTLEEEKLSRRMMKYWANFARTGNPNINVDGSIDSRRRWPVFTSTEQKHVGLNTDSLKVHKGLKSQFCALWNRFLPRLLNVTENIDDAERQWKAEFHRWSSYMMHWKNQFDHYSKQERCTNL

Sequence of Acetylcholinesterase (O42275 whole entry): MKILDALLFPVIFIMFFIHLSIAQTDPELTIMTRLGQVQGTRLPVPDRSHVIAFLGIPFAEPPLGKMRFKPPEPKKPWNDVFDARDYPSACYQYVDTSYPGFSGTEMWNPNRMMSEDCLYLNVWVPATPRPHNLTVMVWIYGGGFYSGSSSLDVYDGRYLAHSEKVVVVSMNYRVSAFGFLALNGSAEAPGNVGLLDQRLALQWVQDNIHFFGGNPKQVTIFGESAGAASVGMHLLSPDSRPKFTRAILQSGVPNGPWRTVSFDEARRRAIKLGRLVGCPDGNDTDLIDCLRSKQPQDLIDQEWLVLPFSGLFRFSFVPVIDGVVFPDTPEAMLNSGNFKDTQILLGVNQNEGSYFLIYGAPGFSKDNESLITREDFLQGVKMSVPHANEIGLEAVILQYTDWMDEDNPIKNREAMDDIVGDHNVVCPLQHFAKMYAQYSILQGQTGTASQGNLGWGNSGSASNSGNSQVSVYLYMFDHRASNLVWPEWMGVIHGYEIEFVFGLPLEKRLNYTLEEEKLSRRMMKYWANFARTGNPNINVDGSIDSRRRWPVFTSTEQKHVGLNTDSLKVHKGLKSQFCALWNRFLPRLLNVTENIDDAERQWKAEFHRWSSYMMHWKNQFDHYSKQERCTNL
Sequence of Cholinesterase (P81908 whole entry): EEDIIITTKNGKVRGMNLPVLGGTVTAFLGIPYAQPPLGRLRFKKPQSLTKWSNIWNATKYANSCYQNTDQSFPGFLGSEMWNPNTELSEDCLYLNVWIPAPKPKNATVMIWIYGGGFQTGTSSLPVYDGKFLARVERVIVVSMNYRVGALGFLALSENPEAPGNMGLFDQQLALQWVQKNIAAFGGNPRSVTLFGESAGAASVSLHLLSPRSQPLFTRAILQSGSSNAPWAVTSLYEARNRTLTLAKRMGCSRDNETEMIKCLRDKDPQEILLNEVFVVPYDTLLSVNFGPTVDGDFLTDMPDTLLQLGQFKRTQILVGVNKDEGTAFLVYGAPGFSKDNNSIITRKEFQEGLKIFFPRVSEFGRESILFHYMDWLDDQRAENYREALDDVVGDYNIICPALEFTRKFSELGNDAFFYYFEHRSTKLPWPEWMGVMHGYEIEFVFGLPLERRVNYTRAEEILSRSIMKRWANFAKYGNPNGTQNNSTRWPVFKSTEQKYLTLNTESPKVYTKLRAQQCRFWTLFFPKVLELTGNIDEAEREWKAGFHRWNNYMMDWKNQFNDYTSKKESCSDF
Sequence of Acetylcholinesterase (Homo sapiens) (P22303 whole entry): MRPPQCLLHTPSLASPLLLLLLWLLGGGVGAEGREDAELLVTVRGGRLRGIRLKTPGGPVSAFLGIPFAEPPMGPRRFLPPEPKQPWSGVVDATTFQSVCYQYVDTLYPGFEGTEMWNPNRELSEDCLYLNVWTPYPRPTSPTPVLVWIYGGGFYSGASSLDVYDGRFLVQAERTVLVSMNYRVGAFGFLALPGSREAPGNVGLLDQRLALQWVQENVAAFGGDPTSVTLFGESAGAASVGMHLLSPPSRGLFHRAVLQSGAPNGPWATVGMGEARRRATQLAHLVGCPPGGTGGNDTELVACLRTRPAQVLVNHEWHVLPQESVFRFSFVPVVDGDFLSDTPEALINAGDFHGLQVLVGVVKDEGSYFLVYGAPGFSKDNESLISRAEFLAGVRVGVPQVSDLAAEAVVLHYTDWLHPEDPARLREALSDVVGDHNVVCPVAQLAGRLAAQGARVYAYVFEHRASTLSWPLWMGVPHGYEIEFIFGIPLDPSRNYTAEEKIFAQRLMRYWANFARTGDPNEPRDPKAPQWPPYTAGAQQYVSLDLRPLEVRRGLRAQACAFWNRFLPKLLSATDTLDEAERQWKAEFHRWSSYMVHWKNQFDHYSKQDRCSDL
Sequence of Amyloid-beta precursor protein (P05067 whole entry): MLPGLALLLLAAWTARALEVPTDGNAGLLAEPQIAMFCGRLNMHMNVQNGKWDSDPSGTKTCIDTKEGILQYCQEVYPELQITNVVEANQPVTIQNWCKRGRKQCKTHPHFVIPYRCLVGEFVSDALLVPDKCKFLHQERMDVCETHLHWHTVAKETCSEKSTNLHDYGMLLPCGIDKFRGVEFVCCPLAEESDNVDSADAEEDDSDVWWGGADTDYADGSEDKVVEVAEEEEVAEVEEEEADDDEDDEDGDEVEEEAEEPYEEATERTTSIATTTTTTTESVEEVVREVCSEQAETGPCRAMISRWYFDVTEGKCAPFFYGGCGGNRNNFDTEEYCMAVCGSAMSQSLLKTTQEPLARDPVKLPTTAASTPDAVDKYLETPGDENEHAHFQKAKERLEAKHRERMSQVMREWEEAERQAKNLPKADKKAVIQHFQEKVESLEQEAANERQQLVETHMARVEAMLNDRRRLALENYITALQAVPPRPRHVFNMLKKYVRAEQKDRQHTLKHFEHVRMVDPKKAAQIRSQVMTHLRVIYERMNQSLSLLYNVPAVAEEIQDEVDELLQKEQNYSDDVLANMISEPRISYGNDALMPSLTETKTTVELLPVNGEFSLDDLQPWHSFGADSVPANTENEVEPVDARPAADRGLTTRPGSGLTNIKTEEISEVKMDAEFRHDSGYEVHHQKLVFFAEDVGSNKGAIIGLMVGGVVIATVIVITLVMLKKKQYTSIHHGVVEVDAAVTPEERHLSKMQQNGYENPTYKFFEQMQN

SMILES	IC50 [1]	inhibition [2]	IC50 [3]	IC50 [4]	Ratio IC50 [5]	inhibition [6]
Oc1c(I)cc(Cl)c2cccnc12 [CLIOQUINOL]	9.8 µM	11.5%	–	–	–	–
O=c1c2cc(NCc3cccc(Br)c3O)ccc2nc2n1CCC2	8.34 µM	–	5.8 µM	20.9 µM	3.6	–
O=c1c2cc(NCc3ccccc3O)ccc2nc2n1CCC2	4.69 µM	49%	1.53 µM	18.2 µM	11.9	–
O=c1c2cc(NCc3cc(F)ccc3O)ccc2nc2n1CCC2	6.3 µM	–	2.51 µM	19.9 µM	7.91	–
O=c1c2cc(NCc3ccc(Cl)cc3O)ccc2nc2n1CCC2	7.02 µM	–	4.78 µM	21.7 µM	4.52	–
Cc1cc2nc3n(c(=O)c2cc1NCc1cccc(Br)c1O)CCC3	9.27 µM	–	6.35 µM	21.6 µM	3.4	–
COc1ccc(CNc2ccc3nc4n(c(=O)c3c2)CCC4)c(O)c1	3.91 µM	68.7%	0.38 µM	15.4 µM	40.5	–
COc1cccc(CNc2cc3c(=O)n4c(nc3cc2C)CCC4)c1O	4.26 µM	55%	0.83 µM	16.2 µM	19.5	–
Cc1cc2nc3n(c(=O)c2cc1NCc1ccccc1O)CCC3	5.09 µM	40.2%	1.58 µM	18.5 µM	11.7	–
Cc1cc2nc3n(c(=O)c2cc1NCc1cc(Br)ccc1O)CCC3	7.37 µM	–	5.27 µM	20.8 µM	3.95	–
Cc1cc2nc3n(c(=O)c2cc1NCc1ccc(Cl)cc1O)CCC3	6.1 µM	–	3.07 µM	20.5 µM	6.68	–
COc1cccc(CNc2ccc3nc4n(c(=O)c3c2)CCC4)c1O	4.2 µM	55.1%	0.9 µM	16.1 µM	17.8	–
O=c1c2cc(NCc3cc(Br)ccc3O)ccc2nc2n1CCC2	7.63 µM	–	5.51 µM	21.5 µM	3.9	–
Cc1cc2nc3n(c(=O)c2cc1NCc1cc(F)ccc1O)CCC3	6.33 µM	–	2.7 µM	20.4 µM	7.56	–
COc1ccc(CNc2cc3c(=O)n4c(nc3cc2C)CCC4)c(O)c1	3.22 µM	72.6%	0.34 µM	14.6 µM	42.9	Active
O=c1c2ccccc2nc2n1CCC2 [DEOXYVASICINONE]	–	3.83%	24 µM	25 µM	–	–
